Several values for one entry are separate records, joined by “and”; a condition that tells them apart may be missing. Identical values can stand only once.
Conditions: Liquid, Closed cell (Static) method

FC(F)CC(F)(F)F [1,1,1,3,3-pentafluoropropane]
Conditions	vapor or sublimation pressure [kPa]
235.65 K	6.9
237.61 K	7.83
239.61 K	8.89
241.65 K	10.09
243.57 K	11.33
245.57 K	12.77
247.67 K	14.43
249.72 K	16.22
251.16 K	17.6
251.64 K	18.05
252.68 K	19.12
253.7 K	20.23
255.59 K	22.39
256.66 K	23.69
257.56 K	24.84
259.6 K	27.62
261.27 K	30.07
261.47 K	30.38
261.62 K	30.62
263.88 K	34.3
265.69 K	37.48
266.4 K	38.77
267.21 K	40.32
267.51 K	40.9
267.65 K	41.19
269.61 K	45.21
271.59 K	49.58
271.73 K	49.9
272.61 K	51.93
273.73 K	54.67
275.73 K	59.81
277.71 K	65.28
277.74 K	65.39
279.71 K	71.23
279.72 K	71.27
281.62 K	77.24
281.74 K	77.66
282.67 K	80.74
283.01 K	81.9
283.62 K	84.01
285.6 K	91.2
287.57 K	98.81
287.58 K	98.82
287.63 K	99.06
289.64 K	107.32
291.68 K	116.25
292.11 K	118.22
292.56 K	120.29
293.02 K	122.46
294.05 K	127.38
296.05 K	137.42
297.68 K	146.08
298.07 K	148.16
299.99 K	158.97
302.22 K	172.36
302.61 K	174.75
302.82 K	176.04
306.06 K	197.31
308.24 K	212.7
312.05 K	241.93
314.67 K	263.68
316.8 K	282.34
318.62 K	299.22
321.02 K	322.69
324.94 K	363.8
326.92 K	386.02
328.21 K	401
328.88 K	409.17
332.34 K	452.27
334.54 K	481.58
335.06 K	488.66
337.05 K	516.55
337.07 K	516.91
337.71 K	526.04
339.46 K	552.03
340.65 K	570.3
340.66 K	570.45
343.11 K	609.1
344.74 K	636.25
345.11 K	642.16
347.04 K	675.54
348.61 K	703.69
349.13 K	713.08
349.32 K	716.41
351.61 K	759.56
363.48 K	1014
365.4 K	1060.6
368.8 K	1147.1
371.52 K	1219.9
373.61 K	1278.4
374.58 K	1306
375.9 K	1344.6
378.5 K	1422.7
380.59 K	1487.9
380.96 K	1500
383.23 K	1573.6
386.07 K	1669.5
388.53 K	1757
391.15 K	1853.4
393.55 K	1945
394.58 K	1985.6
396.2 K	2050.7
398.69 K	2153.7
401.04 K	2254.6
402.98 K	2340.8
404.3 K	2400.9
404.32 K	2401.7
405.05 K	2435.4
407.08 K	2531.5
408.53 K	2601.7
409.04 K	2626.5
409.43 K	2646
411.13 K	2731.4
413.25 K	2841.1
414.11 K	2886.6
414.65 K	2916.1
415.27 K	2949.2
417.28 K	3060.7
419.31 K	3176.2
420.09 K	3221.7
422.02 K	3337.1
422.45 K	3363
424.01 K	3459.9
424.32 K	3479.2
424.52 K	3491.6
426.47 K	3617.9
427.08 K	3658.3

FC(C(F)(F)F)C(F)(F)F [1,1,1,2,3,3,3-heptafluoropropane]
Conditions	vapor or sublimation pressure [kPa]
233.8 K	33.41
235.53 K	36.68
237.5 K	40.7
237.93 K	41.62
239.21 K	44.45
241.12 K	48.94
243.06 K	53.89
245.07 K	59.45
247.09 K	65.47
247.15 K	65.66
249.1 K	71.95
251.21 K	79.25
253.11 K	86.34
255.19 K	94.66
257.15 K	103.11
257.2 K	103.29
258.2 K	107.8
259.06 K	111.83
261.03 K	121.45
262.97 K	131.55
265.23 K	144.08
267.13 K	155.39
269.15 K	168.13
271.12 K	181.25
271.9 K	186.72
273.22 K	196.14
275.23 K	211.33
277.22 K	227.17
277.55 K	229.88
279.11 K	243.04
281.21 K	261.71
283.19 K	280.28
283.23 K	280.58
285.14 K	299.44
287.16 K	320.43
287.95 K	329.02
289.06 K	341.15
291.11 K	364.72
292.83 K	385.4
293.23 K	390.27
294.98 K	412.44
297.07 K	440.12
297.75 K	449.31
299.11 K	468.35
301.1 K	497.27
303.22 K	529.51
306.1 K	575.88
308.04 K	608.64
318.59 K	813.28
320.55 K	856.24
321.06 K	867.63
328.3 K	1043.7
331.45 K	1127.8
338.37 K	1331.1
341.94 K	1446
348.87 K	1690.7
352.27 K	1822.1
359.69 K	2136.3
360.92 K	2192.1
371.37 K	2720.8
371.43 K	2723.8

FC(F)(F)CC(F)(F)F [1,1,1,3,3,3-hexafluoropropane]
Conditions	vapor or sublimation pressure
239.02 K	20.71 kPa
240.1 K	21.95 kPa
242.86 K	25.66 kPa
243.17 K	26.02 kPa
243.26 K	26.19 kPa
244.9 K	28.6 kPa
247.01 K	31.96 kPa
249.11 K	35.66 kPa
249.3 K	35.98 kPa
251.19 K	39.62 kPa
253.11 K	43.66 kPa
253.18 K	43.74 kPa
253.29 K	43.96 kPa
253.33 K	44.11 kPa
255.21 K	48.33 kPa
257.22 K	53.21 kPa
259.25 K	58.54 kPa
261.09 K	63.74 kPa
262.94 K	69.34 kPa
263.1 K	69.79 kPa
263.2 K	70.19 kPa
264.08 K	72.93 kPa
264.88 K	75.59 kPa
266.95 K	82.8 kPa
269.03 K	90.55 kPa
271.1 K	98.85 kPa
273.22 K	107.93 kPa
273.31 K	108.24 kPa
273.32 K	108.34 kPa
273.4 K	108.71 kPa
275.23 K	117.09 kPa
277.32 K	127.3 kPa
279.29 K	137.56 kPa
280.96 K	146.78 kPa
283.24 K	160.12 kPa
283.27 K	160.26 kPa
285.26 K	172.59 kPa
287.23 K	185.57 kPa
289.23 K	199.5 kPa
291.2 K	214 kPa
293.16 K	229.27 kPa
293.29 K	230.28 kPa
294.32 K	238.65 kPa
295.26 K	246.45 kPa
297.25 K	263.72 kPa
299.35 K	282.86 kPa
301.4 K	302.67 kPa
303.06 K	319.32 kPa
303.24 K	321.23 kPa
303.3 K	321.84 kPa
303.55 K	324.31 kPa
305.21 K	342.11 kPa
306.13 K	352.04 kPa
307.21 K	364.17 kPa
307.88 K	372.01 kPa
308.18 K	375.53 kPa
308.2 K	375.7 kPa
309.52 K	391.11 kPa
311.21 K	412.03 kPa
311.29 K	412.84 kPa
312.22 K	424.67 kPa
313.16 K	436.99 kPa
313.29 K	438.48 kPa
313.85 K	445.61 kPa
315.31 K	465.57 kPa
317.16 K	491.51 kPa
319.27 K	522.37 kPa
320.93 K	547.63 kPa
321.21 K	552.1 kPa
323.44 K	587.43 kPa
325.87 K	628.19 kPa and 628.25 kPa
327.21 K	651.86 kPa
328.24 K	669.95 kPa
329.19 K	687.47 kPa
330.27 K	707.58 kPa
330.43 K	710.54 kPa
330.87 K	718.92 kPa
332.2 K	744.56 kPa
332.59 K	752.25 kPa
335.42 K	809.53 kPa
337.41 K	851.82 kPa
337.88 K	862 kPa
339.87 K	906.21 kPa
341.92 K	953.67 kPa
343.98 K	1002.9 kPa
345.61 K	1043.5 kPa
346.25 K	1059.7 kPa
348.23 K	1111.2 kPa
350.37 K	1168.7 kPa
352.05 K	1215.7 kPa
352.45 K	1226.9 kPa
353.22 K	1249.3 kPa
355.64 K	1320.5 kPa
356.7 K	1352.6 kPa
359.21 K	1431.4 kPa
361.34 K	1500.8 kPa
363.46 K	1572.3 kPa
365.6 K	1647.1 kPa
367.45 K	1714.4 kPa
369.49 K	1790.5 kPa
371.35 K	1862.2 kPa
372.12 K	1892.8 kPa
373.44 K	1945.6 kPa
373.47 K	1946.8 kPa
374.62 K	1994.1 kPa
375.47 K	2029.4 kPa
377.6 K	2120.2 kPa
378.14 K	2144.1 kPa
379.74 K	2214.5 kPa
381.83 K	2310.2 kPa
383.87 K	2406.7 kPa
385.8 K	2500.8 kPa
387.8 K	2601.6 kPa
390.19 K	2726.9 kPa
392.05 K	2828.1 kPa
393.47 K	2907.6 kPa
393.73 K	2922.2 kPa
394.04 K	2940 kPa
396.05 K	3057 kPa
396.52 K	3085.8 kPa
397.97 K	3174.2 kPa
